Assay results published in patent US20060035966A1, “Irreversible selective androgen receptor modulators and methods of use thereof” (priority 2002, published 2006).
Read-outs that look alike come from different tables or passages of the source.

Key:
[1] = system: PC-3 bone metastatic prostate cancer cell line; experiment: Cytotoxicity, SRB assay, PC-3; format: cell-based, human
Experimental: PPC-1, LNCaP, TSU, PC-3, and DU145 were grown in PRMI-1640 medium containing 2 mM L-glutamine supplemented with 10% fetal bovine serum (FBS). Cells were maintained in a 5% CO2/95% air humidified atomosphere at 37° C.
(§1) The SRB Assay was used to determine cell number during cytotoxocity experiments. The following protocol was used: • 1. Cells were detached with 0.25% trypsin. • 2. Experimental cultures were cultured in 96-well microtiter plates (200 uL growth medium per well; 1,000-200,000 cells per well). • 3. Cultures were fixed with 50 uL 50% TCA (4° C.). (see cell fixation protocol for details). • 4. Fixed cells were stained with 50 uL 0.4% (wt/vol) SRB in 1% acetic acid for 10 minutes. • 5. SRB was removed and the cultures were quickly* rinsed 5 times with 1% acetic acid to remove unbound dye.** • 6. Cultures were air-dried overnight until there is no visible moisture. • 7. The cellular protein-bound SRB was dissolved with 200 uL unbuffered Tris base (10 mM, pH 10.5) for 30 minutes on a rocking platform shaker. • 8. Absorbance was read at 540 nm. • * quickly performing rinsing process is to prevent desorption of protein-bound SRB • ** completely remove residual wash solution by sharply flicking plates over sink. Fixation of Cells Attached to the Plastic Substratum
(§2) The following protocol was used for fixing cells: • a. 50 uL of 50% TCA (4° C.) were gently layered on the top of growth medium in each well to make a final TCA concentration of 10%. • b. Cultures were incubated at 4° C. for 1 hour. • c. Cultures were washed 5 times with tap water to remove TCA, growth medium, low-molecular-weight metabolites, and serum protein. • d. Plates were air-dried until there was no visible moisture.

[2] = system: HT-29 colorectal adenocarcinoma cell line; experiment: Cytotoxicity, SRB assay, HT-29; format: cell-based, human
Experimental: as §1, with “Cells were detached with 0.25% trypsin. • 2.” left out, “The cellular protein-bound SRB was dissolved with 200 uL unbuffered Tris base (10 mM, pH 10.5) for 30 minutes on a rocking platform shaker. • 8.” left out
as §2

[3] = system: PPC-1 prostate cancer cell line; experiment: Cytotoxicity, SRB assay, PPC-1; format: cell-based, human
Experimental: as §1, with “Cells were detached with 0.25% trypsin. • 2.” left out, “The cellular protein-bound SRB was dissolved with 200 uL unbuffered Tris base (10 mM, pH 10.5) for 30 minutes on a rocking platform shaker. • 8.” left out
as §2

CV-1 control cell line = experiment: Cytotoxicity, SRB assay, CV-1 control; format: cell-based, African green monkey
Experimental: as §1, §2

[4] = system: TCCSUP bladder cancer cell line; experiment: Cytotoxicity, SRB assay, TCCSUP; format: cell-based, human; conditions: read-out: IC50 TCCSUP
Experimental: as §1, with “Cells were detached with 0.25% trypsin. • 2.” left out, “The cellular protein-bound SRB was dissolved with 200 uL unbuffered Tris base (10 mM, pH 10.5) for 30 minutes on a rocking platform shaker. • 8.” left out
as §2

[5] = system: AR-expressing LNCaP prostate cancer cell line; experiment: Cytotoxicity, SRB assay, LNCaP; format: cell-based, human
Experimental: as §1, with “Cells were detached with 0.25% trypsin. • 2.” left out, “The cellular protein-bound SRB was dissolved with 200 uL unbuffered Tris base (10 mM, pH 10.5) for 30 minutes on a rocking platform shaker. • 8.” left out
as §2

[6] = system: TSU prostate cancer cell line; experiment: Cytotoxicity, SRB assay, TSU; format: cell-based, human; conditions: read-out: IC50 TSU
Experimental: as §1, with “Cells were detached with 0.25% trypsin. • 2.” left out, “The cellular protein-bound SRB was dissolved with 200 uL unbuffered Tris base (10 mM, pH 10.5) for 30 minutes on a rocking platform shaker. • 8.” left out
as §2

[7] = system: DU 145 prostate cancer cell line; experiment: Cytotoxicity, SRB assay, DU 145; format: cell-based, human
Experimental: as §1, with “Cells were detached with 0.25% trypsin. • 2.” left out, “The cellular protein-bound SRB was dissolved with 200 uL unbuffered Tris base (10 mM, pH 10.5) for 30 minutes on a rocking platform shaker. • 8.” left out
as §2

CV-1 cells = experiment: Induction of apoptosis, CV-1; format: cell-based, African green monkey
Experimental: (§3) The ability of DJ 1-31, DJ 1-29, S-NTBA and Compound V to induce apoptosis in different prostate cancer cell lines (DU 145, PC-3, TSU, PPC-1 and LNCaP), in other cancer cell lines (TCCSUP, HT-29 and MCF-7) and in a control cell line (CV-1) was determined and the results are shown in Table 6.

MCF-7 cells = experiment: Induction of apoptosis, MCF-7; format: cell-based
Experimental: as §3

DU 145 cells = experiment: Induction of apoptosis, DU 145; format: cell-based, human
Experimental: as §3

HT-29 cells = experiment: Induction of apoptosis, HT-29; format: cell-based, human
Experimental: as §3

LNCaP cells = experiment: Induction of apoptosis, LNCaP; format: cell-based, human
Experimental: as §3

PC-3 cells = experiment: Induction of apoptosis, PC-3; format: cell-based, human
Experimental: as §3

TCCSUP cells = experiment: Induction of apoptosis, TCCSUP; format: cell-based, human
Experimental: as §3

PPC-1 cells = experiment: Induction of apoptosis, PPC-1; format: cell-based, human
Experimental: as §3

TSU cells = experiment: Induction of apoptosis, TSU; format: cell-based, human
Experimental: as §3

[8] = system: MCF-7 breast adenocarcinoma cell line; experiment: Cytotoxicity, SRB assay, MCF-7; format: cell-based; conditions: Homo sapiens, Example 4
Experimental: as §1, §2

[9] = Homo sapiens, read-out: IC50 PC-3
[10] = Homo sapiens, HT-29, read-out: IC50 HT-29
[11] = Homo sapiens, PPC-1, read-out: IC50 PPC-1
[12] = Homo sapiens, LNCaP, 24 h, read-out: IC50 LNCaP 24 hr treatment
[13] = Homo sapiens, LNCaP, 144 h, read-out: IC50 LNCaP 6 day treatment
[14] = Homo sapiens, LNCaP, read-out: IC50 LNCaP
[15] = Homo sapiens, DU-145, read-out: IC50 DU145

Structure (SMILES): O=c1[nH]cc(F)c(=O)[nH]1 [Compound 5-FU, reference compound]
- IC50 ([1]; 24 hr treatment, Example 3, read-out: IC50 PC-3 24 hr treatment): 20 to 50 µM
- IC50 ([1]; 4 day treatment, Example 3, read-out: IC50 PC-3 4 day treatment): 10.9 µM
- IC50 ([1]; Table 2A, Example 1, read-out: IC50 PC-3): 10.5 ± 0.6 µM
- IC50 ([2]; Table 2B, Example 1, read-out: IC50 HT-29): 5.4 ± 1.1 µM
- IC50 ([3]; Table 2A, Example 1, read-out: IC50 PPC-1): 5.1 ± 0.5 µM
- IC50 (CV-1 control cell line; Table 2B, Example 1, read-out: IC50 CV-1 (Control)): 5.4 ± 0.3 µM
- IC50 ([4]; Table 2B, Example 1): 3.6 ± 0.7 µM
- IC50 ([5]; Table 2A, Example 1, read-out: IC50 LNCaP): 4.1 ± 0.6 µM
- IC50 ([6]; Table 2A, Example 1): 2.7 ± 0.6 µM
- IC50 ([7]; Table 2A, Example 1, read-out: IC50 DU145): 4.5 ± 0.3 µM

Structure (SMILES): C[C@](O)(COc1ccc(N=C=S)cc1)C(=O)Nc1ccc([N+](=O)[O-])c(C(F)(F)F)c1 [Compound V]
- Enrichment factor CV-1 (CV-1 cells): 6.548
- Enrichment factor MCF-7 (MCF-7 cells): 1.926
- Enrichment factor DU 145 (DU 145 cells): 5.071
- Enrichment factor HT-29 (HT-29 cells): 1.410
- IC50 ([1]; Homo sapiens, 24 h, read-out: IC50 PC-3): 47.8 ± 4.2 µM
- IC50 ([1]; Homo sapiens, 96 h, read-out: IC50 PC-3): 48.5 ± 10.1 µM
- IC50 [1, 9]: 59 ± 6 µM
- Enrichment factor LNCaP (LNCaP cells): 2.000
- IC50 ([2]; Homo sapiens, HT-29, 24 h, read-out: IC50 HT-29): 85.5 ± 4.5 µM
- IC50 ([2]; Homo sapiens, HT-29, 96 h, read-out: IC50 HT-29): 71 ± 1.2 µM
- IC50 [2, 10]: 55 ± 1.7 µM
- IC50 ([3]; Homo sapiens, PPC-1, 24 h, read-out: IC50 PPC-1): 63.7 ± 4.6 µM
- IC50 ([3]; Homo sapiens, PPC-1, 96 h, read-out: IC50 PPC-1): 62.6 ± 4.9 µM
- IC50 [3, 11]: 58.1 ± 5.9 µM
- Enrichment factor PC-3 (PC-3 cells): 2.500
- IC50 (CV-1 control cell line; Chlorocebus sabaeus, 24 h, read-out: IC50 CV-1): > 100 µM
- IC50 (CV-1 control cell line; Chlorocebus sabaeus, 96 h, read-out: IC50 CV-1): > 100 µM
- Enrichment factor TCCSUP (TCCSUP cells): 1.176
- IC50 ([4]; Homo sapiens, TCC-SUP, 24 h): 90.4 ± 2.2 µM
- IC50 ([4]; Homo sapiens, TCC-SUP, 96 h): 78.1 ± 11.2 µM
- IC50 ([4]; Homo sapiens, TCC-SUP): > 100 µM
- Enrichment factor PPC-1 (PPC-1 cells): 1.749
- IC50 ([5]; Homo sapiens, LNCaP, 24 h, read-out: IC50 LNCaP): 19.8 ± 10.5 µM
- IC50 [5, 12]: 39.6 µM
- IC50 ([5]; Homo sapiens, LNCaP, 96 h, read-out: IC50 LNCaP): 12.8 ± 4.1 µM
- IC50 [5, 13]: 33.6 µM
- IC50 [5, 14]: 26 ± 8.3 µM
- Selectivity for the AR-expressing LNCaP prostate cancer cell line ([5]; compared with prostate cancer cell lines not expressing AR, non-prostate cancer cell lines, control cell line): highly selective
- IC50 ([6]; Homo sapiens, 24 h): 54.1 ± 5.5 µM
- IC50 ([6]; Homo sapiens, 96 h): 55 ± 0.8 µM
- IC50 ([6]; Homo sapiens): 56.9 ± 2.9 µM
- IC50 ([7]; Homo sapiens, DU-145, 24 h, read-out: IC50 DU 145): 62.1 ± 0.6 µM
- IC50 ([7]; Homo sapiens, DU-145, 96 h, read-out: IC50 DU 145): 69.7 ± 6.5 µM
- IC50 [7, 15]: 74.8 ± 1.2 µM
- Enrichment factor TSU (TSU cells): 1.167
- IC50 ([8]; MCF7, 24 h, drug incubation time 1 day): 32.7 ± 1.9 µM
- IC50 ([8]; MCF7, 96 h, drug incubation time 4 day): 39.4 ± 5.4 µM

Structure (SMILES): C[C@](O)(CSc1ccc(NC(=O)CBr)cc1)C(=O)Nc1ccc(C#N)c(C(F)(F)F)c1 [R-CTF-T-BA-1]
- IC50 ([1]; Homo sapiens, 24 h, read-out: IC50 PC-3 24 hr treatment): 22.1 µM
- IC50 ([1]; Homo sapiens, 96 h, read-out: IC50 PC-3 4 day treatment): 16.8 µM
- IC50 [1, 9]: 2.6 ± 0.1 µM
- IC50 [2, 10]: 1.6 ± 0.03 µM
- IC50 [3, 11]: 1.3 ± 0.1 µM
- IC50 (CV-1 control cell line; Chlorocebus sabaeus, 24 h, read-out: IC50 CV-1 24 hr treatment): 23.4 ± 1.6 µM
- IC50 (CV-1 control cell line; Chlorocebus sabaeus, 96 h, read-out: IC50 CV-1 4 day treatment): 13.9 µM
- IC50 (CV-1 control cell line; Chlorocebus sabaeus, read-out: IC50 CV-1 (Control)): 10.8 ± 0.5 µM
- IC50 ([4]; Homo sapiens, TCC-SUP): 3.8 ± 0.5 µM
- IC50 [5, 12]: 11.2 µM
- IC50 [5, 13]: 8.1 µM
- IC50 [5, 14]: 3.2 ± 0.4 µM
- IC50 ([6]; Homo sapiens): 0.6 ± 0.1 µM
- IC50 [7, 15]: 3.1 ± 0.1 µM
